Experimental data as given in ChEMBL document CHEMBL4665709, “Rational Avoidance of Protease Cleavage Sites and Symmetrical End-Tagging Significantly Enhances the Stability and Therapeutic Potential of Antimicrobial Peptides” (J Med Chem, 2020).
Values after ≈ are worked out from the molar mass of the structure shown. Active and inactive are the calls of the source. The rule behind the calls is not given here. Where a SMILES comes first, the peptide text is derived from it.

Tests used:
[1] = tested on: Staphylococcus epidermidis; experiment: Antibacterial activity against Staphylococcus epidermidis ATCC 12228 after 18 to 24 hrs by CLSI-based broth microdilution method; assay type: functional; conditions: time hrs 18-24
[2] = tested on: RAW264.7; experiment: Antiinflammatory activity in mouse RAW264.7 cells assessed as inhibition of LPS-induced TNF-alpha production after 24 hrs by ELISA; assay type: functional, cell-based
[3] = tested on: Cell membrane; experiment: Induction of morpholoical changes in membrane of Escherichia coli ATCC 25922 assessed as corrugation in bacterial membrane at 1 times MIC after 1 hr by scanning electron microscopy
[4] = Cytotoxicity against HEK-293T cells assessed as cell viability at 128 uM by MTT assay relative to control; assay type: cell-based; conditions: human, read-out: Activity
[5] = Toxicity in C57BL/6 mouse assessed as change in body weigh at 10 mg/kg, ip measured for 5 days; assay type: organism-based; conditions: in vivo, 120 h, time 5 day
[6] = tested on: Escherichia coli; experiment: Antibacterial activity against Escherichia coli ATCC 25922 infected in C57BL/6 mouse assessed as reduction in TNF-alpha level in serum at 10 mg/kg, ip measured after 11 hrs by ELISA; assay type: functional, organism-based
[7] = Therapeutic index, ratio of MHC for human RBC to geometric mean of peptide MIC for Salmonella typhimurium 14028; assay type: toxicity; conditions: human red blood cells (RBC), read-out: TI
[8] = tested on: Cell membrane; experiment: Disruption of membrane integrity in Staphylococcus aureus ATCC 29213 assessed as induction of membrane rupture after 1 hr by PI-staining based flow cytometry analysis
[9] = tested on: Cell membrane; experiment: Induction of structural changes in membrane of Escherichia coli ATCC 25922 assessed as cytoplasmic leakage at 1 times MIC after 1 hr by transmission electron microscopy
[10] = tested on: RAW264.7; experiment: Antiinflammatory activity in mouse RAW264.7 cells assessed as inhibition of LPS-induced IL-1beta production after 24 hrs by ELISA; assay type: functional, cell-based
[11] = tested on: Escherichia coli; experiment: Antibacterial activity against Escherichia coli 25922 measured over 40 passages; assay type: functional, organism-based; conditions: ATCC 25922
[12] = tested on: Cell membrane; experiment: Induction of morpholoical changes in membrane of Staphylococcus aureus ATCC 29213 assessed as corrugation in bacterial membrane at 1 times MIC after 1 hr by scanning electron microscopy; assay type: subcellular
[13] = Stability of compound assessed as chymotrypsin (unknown origin)-mediated drug degradation after 8 hrs by RP-HPLC analysis; assay type: ADME; conditions: human
[14] = tested on: Cell membrane; experiment: Induction of outer membrane permeabilization in Escherichia coli ATCC 25922 after 30 mins by NPN-dye based assay
[15] = tested on: Escherichia coli; experiment: Antibacterial activity against Escherichia coli ATCC 25922 after 18 to 24 hrs in presence of 6 uM Fe3+ by CLSI-based broth microdilution method; assay type: functional; conditions: time hrs 18-24
[16] = tested on: Escherichia coli; experiment: Antibacterial activity against Escherichia coli ATCC 25922 after 18 to 24 hrs in presence of 100% human serum by CLSI-based broth microdilution method; assay type: functional; conditions: time hrs 18-24
[17] = tested on: Escherichia coli; experiment: Antibacterial activity against Escherichia coli ATCC 25922 infected in C57BL/6 mouse assessed as reduction in lesion in spleen at 10 mg/kg, ip measured after 11 hrs by hematoxylin and eosin staining based assay; assay type: functional, organism-based
[18] = tested on: Staphylococcus aureus; experiment: Antibacterial activity against Staphylococcus aureus 29213 with 0.0625-2 mg/mL chymotrypsin for 1 hr followed by test compound addition measured after 4 to 8 hrs by CLSI-based broth microdilution method; assay type: functional, organism-based; conditions: time hrs 4-8
[19] = tested on: Cell membrane; experiment: Induction of structural changes in membrane of Staphylococcus aureus ATCC 29213 assessed as membrane damage at 1 times MIC after 1 hr by transmission electron microscopy; assay type: subcellular
[20] = tested on: Escherichia coli; experiment: Antibacterial activity against Escherichia coli ATCC 25922 infected in C57BL/6 mouse reduction in inflammatory cell infiltration in liver at 10 mg/kg, ip measured after 11 hrs by hematoxylin and eosin staining based assay; assay type: functional, organism-based
[21] = tested on: Staphylococcus aureus; experiment: Antibacterial activity against Staphylococcus aureus ATCC 29213 after 18 to 24 hrs in presence of 150 mM Na+ by CLSI-based broth microdilution method; assay type: functional; conditions: time hrs 18-24
[22] = target: Trypsin (Homo sapiens, UniProt P07477+P07478+P35030); experiment: Stability of compound assessed as trypsin (unknown origin)-mediated drug degradation after 8 hrs by SDS-PAGE analysis; assay type: ADME, protein assay
[23] = tested on: Escherichia coli; experiment: Antibacterial activity against Escherichia coli ATCC 25922 infected in C57BL/6 mouse assessed as reduction in bleeding in spleen at 10 mg/kg, ip measured after 11 hrs by hematoxylin and eosin staining based assay; assay type: functional, organism-based
[24] = tested on: Staphylococcus aureus; experiment: Antibacterial activity against Staphylococcus aureus 29213 with 0.0625-2 mg/mL trypsin for 1 hr followed by test compound addition measured after 4 to 8 hrs by CLSI-based broth microdilution method; assay type: functional, organism-based; conditions: time hrs 4-8
[25] = tested on: Escherichia coli; experiment: Antibacterial activity against Escherichia coli ATCC 25922 infected in C57BL/6 mouse assessed as reduction in bleeding in kidney at 10 mg/kg, ip measured after 11 hrs by hematoxylin and eosin staining based assay; assay type: functional, organism-based
[26] = tested on: Cell membrane; experiment: Induction of morpholoical changes in membrane of Escherichia coli ATCC 25922 assessed as fragmentation in bacterial membrane at 1 times MIC after 1 hr by scanning electron microscopy; assay type: subcellular
[27] = tested on: Staphylococcus aureus; experiment: Antibacterial activity against Staphylococcus aureus 29213 with 0.0625-2 mg/mL pepsin for 1 hr followed by test compound addition measured after 4 to 8 hrs by CLSI-based broth microdilution method; assay type: functional, organism-based; conditions: time hrs 4-8
[28] = tested on: Escherichia coli; experiment: Antibacterial activity against Escherichia coli ATCC 25922 after 18 to 24 hrs in presence of 25% human serum by CLSI-based broth microdilution method; assay type: functional; conditions: time hrs 18-24
[29] = tested on: Staphylococcus aureus; experiment: Antibacterial activity against methicillin-resistant Staphylococcus aureus 43300 after 18 to 24 hrs by CLSI-based broth microdilution method; assay type: functional; conditions: time hrs 18-24
[30] = Stability of compound assessed as chymotrypsin (unknown origin)-mediated drug degradation after 8 hrs by SDS-PAGE analysis; assay type: ADME; conditions: human
[31] = tested on: Escherichia coli; experiment: Antibacterial activity against Escherichia coli ATCC 25922 infected in C57BL/6 mouse assessed as reduction in lesion in kidney at 10 mg/kg, ip measured after 11 hrs by hematoxylin and eosin staining based assay; assay type: functional, organism-based
[32] = Cytotoxicity against mouse RAW264.7 cells assessed as cell viability at 128 uM by MTT assay relative to control; assay type: cell-based; conditions: read-out: Activity
[33] = Toxicity in C57BL/6 mouse assessed as effect on creatinine level at 10 mg/kg, ip measured after 5 days; assay type: organism-based; conditions: in vivo, 120 h, time 5 day
[34] = Therapeutic index, ratio of MHC for human RBC to geometric mean of peptide MIC for Staphylococcus epidermidis ATCC 12228; assay type: toxicity; conditions: human red blood cells (RBC), read-out: TI
[35] = tested on: Salmonella typhimurium; experiment: Antibacterial activity against Salmonella typhimurium 14028 after 18 to 24 hrs by CLSI-based broth microdilution method; assay type: functional, Salmonella enterica subsp. enterica serovar Typhimurium; conditions: Salmonella enterica, time hrs 18-24
[36] = tested on: Cell membrane; experiment: Induction of structural changes in membrane of Escherichia coli ATCC 25922 assessed as cytoplasmic membrane separation at 1 times MIC after 1 hr by transmission electron microscopy; assay type: subcellular
[37] = tested on: RAW264.7; experiment: Antiinflammatory activity in mouse RAW264.7 cells assessed as inhibition of LPS-induced IL-6 production after 24 hrs by ELISA; assay type: functional, cell-based
[38] = tested on: Staphylococcus aureus; experiment: Antibacterial activity against Staphylococcus aureus ATCC 29213 after 18 to 24 hrs in presence of 4.5 mM K+ by CLSI-based broth microdilution method; assay type: functional; conditions: time hrs 18-24

Question: For CC[C@H](C)[C@H](N)C(=O)N[C@H](C(=O)N[C@H](C(=O)N[C@@H](CS)C(=O)N[C@@H](CCCNC(=N)N)C(=O)N[C@@H](CCCCN)C(=O)N1CCC[C@H]1C(=O)N[C@H](C(=O)N[C@H](C(=O)N[C@@H](CS)C(=O)N[C@@H](CCCNC(=N)N)C(=O)N[C@@H](CCCCN)C(=O)N1CCC[C@H]1C(=O)N[C@H](C(=O)N[C@H](C(=O)N[C@@H](CS)C(=O)N[C@@H](CCCNC(=N)N)C(=O)N[C@@H](CCCCN)C(=O)N1CCC[C@H]1C(=O)N[C@H](C(=O)N[C@H](C(=O)N[C@@H](CS)C(=O)N[C@@H](CCCNC(=N)N)C(=O)N[C@@H](CCCCN)C(=O)N1CCC[C@H]1C(=O)N[C@H](C(=O)N[C@H](C(=O)N[C@H](C(N)=O)[C@@H](C)CC)[C@@H](C)CC)[C@@H](C)CC)[C@@H](C)CC)[C@@H](C)CC)[C@@H](C)CC)[C@@H](C)CC)[C@@H](C)CC)[C@@H](C)CC)[C@@H](C)CC)[C@@H](C)CC (H-IIICRKPIICRKPIICRKPIICRKPIII-NH2), which MIC [1] is on record?
Answer: 4 µM (≈ 13.3 µg/mL)

Question: What about the Activity [2] of the same compound?
Answer: Dose-dependent effect

Question: And the Activity [3]?
Answer: Active

Question: And the viability at 128 µM [4]?
Answer: > 90%

Question: What about the Activity [5] of the same compound?
Answer: Non-Toxic

Question: What about the Activity [6] of the same compound?
Answer: Active

Question: And the selectivity ratio [7]?
Answer: 57

Question: What about the Activity [8] of the same compound?
Answer: Dose-dependent effect

Question: And the Activity [9]?
Answer: Active

Question: What about the Activity [10] of the same compound?
Answer: Dose-dependent effect

Question: What about the Activity [11] of the same compound?
Answer: Active

Question: What about the Activity [12] of the same compound?
Answer: Active

Question: And the Stabilty [13]?
Answer: Stable

Question: And the Activity [14]?
Answer: Dose-dependent effect

Question: What about the MIC [15] of the same compound?
Answer: 2 µM

Question: What about the MIC [16] of the same compound?
Answer: 8 µM

Question: What about the Activity [17] of the same compound?
Answer: Active

Question: And the Activity [18]?
Answer: Active

Question: And the Activity [19]?
Answer: Active

Question: What about the Activity [20] of the same compound?
Answer: Active

Question: What about the MIC [21] of the same compound?
Answer: 16 µM

Question: And the Stabilty [22]?
Answer: Stable

Question: What about the Activity [23] of the same compound?
Answer: Active

Question: What about the Activity [24] of the same compound?
Answer: Active

Question: What about the Activity [25] of the same compound?
Answer: Active

Question: And the Activity [26]?
Answer: Active

Question: What about the Activity [27] of the same compound?
Answer: Active

Question: What about the MIC [28] of the same compound?
Answer: 4 µM

Question: And the MIC [29]?
Answer: 4 µM (≈ 13.3 µg/mL)

Question: And the Stabilty [30]?
Answer: Stable

Question: What about the Activity [31] of the same compound?
Answer: Active

Question: What about the viability at 128 µM [32] of the same compound?
Answer: > 90%

Question: What about the Activity [33] of the same compound?
Answer: Non-Toxic

Question: What about the selectivity ratio [34] of the same compound?
Answer: 28.5

Question: What about the MIC [35] of the same compound?
Answer: 2 µM (≈ 6.63 µg/mL)

Question: And the Activity [36]?
Answer: Active

Question: What about the Activity [37] of the same compound?
Answer: Dose-dependent effect

Question: What about the MIC [38] of the same compound?
Answer: 8 µM
